The text below walks through data of ChEMBL document CHEMBL1135846, “In vivo active antimalarial isonitriles” (Bioorg Med Chem Lett, 2002).

Molecules are shown by their SMILES. In brackets after ≈: the same amount, converted by molar mass. Some results are limits rather than exact numbers.

As usually defined, the MIC is the lowest concentration found to suppress growth.

Data set [1] relates to Mus musculus. Briefly: Antimalarial activity of compound against multidrug-resistant strain of Plasmodium yoelii in 5 Swiss mice (Mus musculus) treated at a dose of 50 mg/kg/day. Type of data set: functional.
Data set [2] relates to Mus musculus. Briefly: Antimalarial activity of compound against multidrug-resistant strain of Plasmodium yoelii in 5 Swiss mice (Mus musculus) treated at a dose of 100 mg/kg/day. In kind it is functional.
Data set [3] concerns Mus musculus. The data set can be described thus: Antimalarial activity of compound against multidrug-resistant strain of Plasmodium yoelii in Swiss mice (Mus musculus) at a dose of 100 mg/kg/day (percent suppression on day 4). Type of data set: functional.
In data set [4] the test system is Mus musculus. The data set can be described thus: Antimalarial activity of compound against multidrug-resistant strain of Plasmodium yoelii in Swiss mice (Mus musculus) at a dose of 50 mg/kg/day (percent suppression on day 4). In kind it is functional.
Another data set deals with Plasmodium falciparum. Briefly: In vitro antimalarial activity for Plasmodium falciparum NF54. Type of data set: functional.
Data set [5] has as its system Mus musculus. Briefly: In vivo antimalarial activity of compound against multidrug-resistant strain of Plasmodium yoelii in 5 Swiss mice (Mus musculus) treated at a dose of 25 mg/kg/day. In kind it is functional.
Data set [6] deals with Mus musculus. The data set can be described thus: Antimalarial activity of compound against multidrug-resistant strain of Plasmodium yoelii in 5 Swiss mice (Mus musculus) treated at a dose of 6.25 mg/Kg/day. In kind it is functional.
Data set [7] has as its system Mus musculus. The data set can be described thus: Antimalarial activity of compound against multidrug-resistant strain of Plasmodium yoelii in Swiss mice (Mus musculus) at a dose of 6.25 mg/kg/day (percent suppression on day 4). In kind it is functional.
The subject of data set [8] is Mus musculus. The data set can be described thus: Number of mice alive on day 28 treated with a dose of 50 mg/kg/day. Type of data set: functional.
Data set [9] deals with Mus musculus. The data set can be described thus: Number of mice alive on day 28 treated with a dose of 6.25 mg/kg/day. In kind it is functional.
For data set [10], the system named is Mus musculus. Briefly: Antimalarial activity of compound against multidrug-resistant strain of Plasmodium yoelii in Swiss mice (Mus musculus) at a dose of 12.5 mg/kg/day (percent suppression on day 4). Type of data set: functional.
Data set [11] relates to Mus musculus. The data set can be described thus: Mean survival time of animals was calculated after administering a dose of 25 mg/kg/day during 28-day observation period. In kind it is functional.
Data set [12] deals with Mus musculus. The data set can be described thus: Mean survival time of animals was calculated after administering a dose of 50 mg/kg/day during 28-day observation period. In kind it is functional.
The test system of data set [13] is Mus musculus. The data set can be described thus: Mean survival time of animals was calculated after administering a dose of 6.25 mg/Kg/day during 28-day observation period. In kind it is functional.
The subject of data set [14] is Mus musculus. The data set can be described thus: Number of mice alive on day 28 treated with a dose of 12.5 mg/kg/day. Type of data set: functional.
Data set [15] deals with Mus musculus. Briefly: Number of mice alive on day 28 treated with a dose of 25 mg/kg/day. Type of data set: functional.
For data set [16], the system named is Mus musculus. The data set can be described thus: Mean survival time of animals was calculated after administering a dose of 12.5 mg/kg/day during 28-day observation period. Type of data set: functional.
The subject of data set [17] is Mus musculus. The data set can be described thus: Antimalarial activity of compound against multidrug-resistant strain of Plasmodium yoelii in Swiss mice (Mus musculus) at a dose of 25 mg/kg/day (percent suppression on day 4). In kind it is functional.
Data set [18] relates to Mus musculus. The data set can be described thus: Antimalarial activity of compound against multidrug-resistant strain of Plasmodium yoelii in 5 Swiss mice (Mus musculus) treated at a dose of 12.5 mg/Kg/day. Type of data set: functional.
The nature of data set [19]: Antimalarial activity of compound against multidrug-resistant strain of Plasmodium yoelii in Swiss mice (Mus musculus) at a dose of 100 mg/kg/day (percent suppression on day 4); toxic. In kind it is organism-based. The conditions noted are these: in vivo.
Data set [20] deals with Mus musculus. Briefly: Antimalarial activity of compound against multidrug-resistant strain of Plasmodium yoelii in 5 Swiss mice (Mus musculus) at a dose of 100 mg/kg/day. In kind it is functional.
Data set [21] relates to Mus musculus. The data set can be described thus: Antimalarial activity of compound against multidrug-resistant strain of Plasmodium yoelii in 5 Swiss mice (Mus musculus) at a dose of 50 mg/kg/day. In kind it is functional.
The test system of data set [22] is Mus musculus. Briefly: Antimalarial activity of compound against multidrug-resistant strain of Plasmodium yoelii in Swiss mice (Mus musculus) at a dose of 50 mg/kg/day (percent suppression on day 4-nil). Type of data set: functional, organism-based.

As to `[C-]#[N+]c1ccc2c(c1)Cc1ccccc1-2`, the “No. of mice cured” value in the data set on Mus musculus [1] and in the data set with Mus musculus [2] was 0 in each case. The Supression amounted to 21.35% in the data set on Mus musculus [3] and 6.34% in the data set on Mus musculus [4]. Moreover, 2 µg/mL (≈ 10.5 µM) was the least that counted as inhibitory against Plasmodium falciparum (MIC).

In the case of `[C-]#[N+]C1C[C@H](C)CC[C@H]1C(C)C` (some centres not stated), the MIC against Plasmodium falciparum amounted to 50 µg/mL (≈ 303 µM).

For `[C-]#[N+]C12CC3CC(CC(C3)C1)C2`, the “No. of mice cured” value in the data set on Mus musculus [5] was found to be 0; in the data set with Mus musculus [1], 2; in the data set with Mus musculus [6], 0; with Mus musculus [2] it was 0; with Mus musculus [18] it was 0. Besides, the Supression is given as 19% in the data set with Mus musculus [7]; 73% with Mus musculus [10]; 100% with Mus musculus [4]; 99.8% in the data set on Mus musculus [17]; “Toxic” in [19]. For the same compound, the Survival is recorded as 2 with Mus musculus [8], 0 with Mus musculus [9], 0 in the data set on Mus musculus [14] and 1 in the data set on Mus musculus [15]. In addition, the MST in the data set on Mus musculus [11] was 12.8; in the data set on Mus musculus [12], 16.3; with Mus musculus [13], 8.2; with Mus musculus [16], 11.8. The compound also returned an MIC in the data set with Plasmodium falciparum of 0.4 µg/mL (≈ 2.48 µM).

Turning to `[C-]#[N+]c1ccc(-c2ccccc2)cc1`, the “No. of mice cured” value with Mus musculus [1] and in the data set on Mus musculus [2] was 0 throughout. The figures for the Supression in the data set on Mus musculus [3] and with Mus musculus [4] were 62.79% and 32.98%, respectively. Besides, in the data set with Plasmodium falciparum, it took 1 µg/mL (≈ 5.58 µM) to inhibit growth (MIC).

In the case of `[C-]#[N+]c1ccc(C(C)=O)cc1`, the “No. of mice cured” value with Mus musculus [20] and with Mus musculus [21] was 0 throughout. For the same compound, the Supression entry was “Nil” in the data set with Mus musculus [22] and 35.72% in the data set on Mus musculus [3]. This compound had an MIC against Plasmodium falciparum of 2 µg/mL (≈ 13.8 µM).

The compound `C[C@@H]1CC[C@H]2[C@@H](C)C(=O)O[C@@H]3O[C@@]4(C)CC[C@@H]1[C@]32OO4` [ARTEMISININ] showed an MIC with Plasmodium falciparum of 0.03 µg/mL (≈ 0.106 µM).

Regarding `[C-]#[N+]c1ccc(Br)cc1Br`, in the data set on Plasmodium falciparum, the MIC was found to be 50 µg/mL (≈ 192 µM). Against the preceding compound, the MIC is about 1700-fold higher.

With `[C-]#[N+]C1CC[C@@]2(C)[C@@H](CC[C@@H]3[C@@H]2CC[C@]2(C)[C@@H]([C@H](C)CCCC(C)C)CC[C@@H]32)C1` (some centres not stated), the MIC with Plasmodium falciparum was above 50 µg/mL.

The compound `[C-]#[N+]c1cccc2ccccc12` came in with an MIC in the data set with Plasmodium falciparum of 50 µg/mL (≈ 326 µM).

In the case of `[C-]#[N+][C@H]1CC[C@@]2(C)[C@@H](CC[C@@H]3[C@@H]2CC[C@]2(C)[C@@H]([C@H](C)CCCC(C)C)CC[C@@H]32)C1`, the MIC against Plasmodium falciparum is above 50 µg/mL.

`CCN(CC)CCCC(C)Nc1ccnc2cc(Cl)ccc12` (configuration not stated) [CHLOROQUINE] came in with an MIC in the data set with Plasmodium falciparum of 0.04 µg/mL (≈ 0.125 µM).

The compound `[C-]#[N+]c1ccc2ccccc2c1` displayed an MIC with Plasmodium falciparum of 50 µg/mL (≈ 326 µM).
